According to PubChem BioAssay (NCI):
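Growth conditions: 96-well plates. Treatment: test compound, 48 hours, 5 concentrations. Analysis: linear interpolation between bracketing concentrations; unreached endpoints set to highest concentration. TGI: concentration producing complete growth inhibition.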

Experiments:
Experiment in all cases: NCI tumour cell line growth inhibition, 48 h
786-0 renal = tested on: 786-0 renal
A498 renal = tested on: A498 renal
A549 NSCLC = tested on: A549 NSCLC
ACHN renal = tested on: ACHN renal
BT-549 breast = tested on: BT-549 breast
CAKI-1 renal = tested on: CAKI-1 renal
CCRF-CEM leukemia = tested on: CCRF-CEM leukemia
COLO 205 colon = tested on: COLO 205 colon
DLD-1 colon = tested on: DLD-1 colon
DMS 114 small cell lung = tested on: DMS 114 small cell lung
DMS 273 small cell lung = tested on: DMS 273 small cell lung
DU-145 prostate = tested on: DU-145 prostate
EKVX NSCLC = tested on: EKVX NSCLC
HCC-2998 colon = tested on: HCC-2998 colon
HCT-116 colon = tested on: HCT-116 colon
HCT-15 colon = tested on: HCT-15 colon
HL-60(TB) leukemia = tested on: HL-60(TB) leukemia
HOP-18 NSCLC = tested on: HOP-18 NSCLC
HOP-62 NSCLC = tested on: HOP-62 NSCLC
HOP-92 NSCLC = tested on: HOP-92 NSCLC
HS 578T breast = tested on: HS 578T breast
HT29 colon = tested on: HT29 colon
IGROV1 ovarian = tested on: IGROV1 ovarian
K-562 leukemia = tested on: K-562 leukemia
KM12 colon = tested on: KM12 colon
KM20L2 colon = tested on: KM20L2 colon
LOX IMVI melanoma = tested on: LOX IMVI melanoma
M14 melanoma = tested on: M14 melanoma
M19-MEL melanoma = tested on: M19-MEL melanoma
MALME-3M melanoma = tested on: MALME-3M melanoma
MCF7 breast = tested on: MCF7 breast
MDA-MB-231 breast = tested on: MDA-MB-231 breast
MDA-MB-435 = tested on: MDA-MB-435
MDA-N = tested on: MDA-N
MOLT-4 leukemia = tested on: MOLT-4 leukemia
NCI-H226 lung = tested on: NCI-H226 lung
NCI-H23 lung = tested on: NCI-H23 lung
NCI-H460 lung = tested on: NCI-H460 lung
NCI-H522 lung = tested on: NCI-H522 lung
NCI/ADR-RES ovarian = tested on: NCI/ADR-RES ovarian
OVCAR-3 ovarian = tested on: OVCAR-3 ovarian
OVCAR-4 ovarian = tested on: OVCAR-4 ovarian
OVCAR-5 ovarian = tested on: OVCAR-5 ovarian
OVCAR-8 ovarian = tested on: OVCAR-8 ovarian
P388 leukemia = tested on: P388 leukemia
P388/ADR leukemia = tested on: P388/ADR leukemia
PC-3 prostate = tested on: PC-3 prostate
RPMI-8226 leukemia = tested on: RPMI-8226 leukemia
RXF 393 renal = tested on: RXF 393 renal
SF-268 CNS = tested on: SF-268 CNS
SF-295 CNS = tested on: SF-295 CNS
SF-539 CNS = tested on: SF-539 CNS
SK-MEL-2 melanoma = tested on: SK-MEL-2 melanoma
SK-MEL-28 melanoma = tested on: SK-MEL-28 melanoma
SK-MEL-5 melanoma = tested on: SK-MEL-5 melanoma
SK-OV-3 ovarian = tested on: SK-OV-3 ovarian
SN12C renal = tested on: SN12C renal
SN12K1 renal = tested on: SN12K1 renal
SNB-19 CNS = tested on: SNB-19 CNS
SNB-75 CNS = tested on: SNB-75 CNS
SNB-78 CNS = tested on: SNB-78 CNS
SR leukemia = tested on: SR leukemia
SW-620 colon = tested on: SW-620 colon
T-47D breast = tested on: T-47D breast
TK-10 renal = tested on: TK-10 renal
U251 CNS = tested on: U251 CNS
UACC-257 melanoma = tested on: UACC-257 melanoma
UACC-62 melanoma = tested on: UACC-62 melanoma
UO-31 renal = tested on: UO-31 renal
XF 498 CNS = tested on: XF 498 CNS

Measured: TGI

Cc1cn(C2CC(O)C(CO)O2)c(=O)[nH]c1=O (stereo not given)
2.39 mM: CCRF-CEM leukemia
> 4.64 mM: OVCAR-4 ovarian
0.366 mM: XF 498 CNS
> 2.85 mM: SNB-19 CNS
1.97 mM: P388 leukemia
4.96 mM: OVCAR-8 ovarian
> 4.5 mM: SNB-75 CNS
> 4.9 mM: MALME-3M melanoma
4.53 mM: SN12K1 renal
> 4.83 mM: HOP-92 NSCLC
> 2.65 mM: OVCAR-3 ovarian
4.95 mM: EKVX NSCLC
> 4.53 mM: NCI-H23 lung
4.63 mM: HOP-62 NSCLC
2.65 mM: P388/ADR leukemia
4.09 mM: MOLT-4 leukemia
> 4.3 mM: MCF7 breast
4.45 mM: A549 NSCLC | CAKI-1 renal
3.68 mM: UACC-62 melanoma
> 4.89 mM: SK-OV-3 ovarian
> 4.24 mM: HCT-116 colon | NCI-H522 lung | SN12C renal
> 4.67 mM: DMS 114 small cell lung
> 5 mM: all other assays above
